Drawing on US7879887B2, “α-amino acid derivatives and medicaments containing the same as an active ingredient” (Nissan Chemical Industries, Ltd., priority 2006, dated 2011), this text covers IC50 for two compounds.

Molecules are shown by their SMILES.

One assay addresses T1, CDK3/Cyclin E complex (Homo sapiens, UniProt Q00526).
T1 construct: purchased Upstate Inc. 14-487
Put plainly: In vitro kinase assay, CDK3/Cyclin E complex. In kind it is biochemical. The note with it: recombinant protein (Upstate); read-out: CDK3/cyclinE IC50. As to the method: (§1) Inhibitory activity against Aurora A, CDK1/Cyclin B complex, CDK2/Cyclin E complex and CDK3/Cyclin E complex were measured by in vitro kinase assay using recombinant proteins.

In another assay the test system is leukemia cell line KG-1a. The assay is described as follows: Cell proliferation inhibitory activity, KG-1a. The format is cell-based. The note with it: Homo sapiens, 96 h, cells counted 4 days later with Cell Counting Kit-8. The gist of the method:
(§2)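 Cells were exposed to serial concentrations of test substance at 37° C in 5% CO2 for 4 days, then counted with Cell Counting Kit-8. IC50 was derived with substance-free wells set as 0% inhibition and wells lacking both substance and cells as 100%.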
(In general: Tetrazolium dyes change colour on reduction, which living cells bring about.)

For assay [1], the system named is lung carcinoma cell line NCI-H460. Put plainly: Cell proliferation inhibitory activity, NCI-H460. In kind it is cell-based. The note with it: Homo sapiens, 96 h, cells counted 4 days later with Cell Counting Kit-8. The gist of the method:
as §2

For assay [2], the system named is ovarian cancer cell line IGROV1. The assay is described as follows: Cell proliferation inhibitory activity, IGROV1. The note with it: Homo sapiens, IGROV-1, 96 h, cells counted 4 days later with Cell Counting Kit-8. The format is cell-based. The gist of the method: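 Suspended cells were added to test substance solutions at a range of concentrations and cultured for 4 days at 37° C in a 5% CO2 incubator. Viable cell numbers were then determined by CCK-8.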

Assay [3] relates to pancreatic cancer cell line MIAPaCa-2. Put plainly: Cell proliferation inhibitory activity, MIAPaCa-2. In kind it is cell-based. As to conditions: Homo sapiens, MIA PaCa-2, 96 h; cells counted 4 days later, Cell Counting Kit-8. The procedure:
Evaluations were carried out using colon carcinoma cell line SW620 (Cat. No. CCL-227), lung carcinoma cell line NCI-H460 (Cat. No. HTB-177), prostate cancer cell line DU 145 (Cat. No. HTB-81), breast cancer cell line MDA-MB-231 (Cat. No. HTB26) and leukemia cell line KG-1a (Cat. No. CCL-246.1) purchased from ATCC, pancreatic cancer cell line MIAPaCa-2 (Cat. No. CRL-1420) purchased from Dainippon Pharmaceutical, and ovarian cancer cell line IGROV1 received from the Netherland Cancer Institute. The cells were cultured under the conditions recommended by the supplier for each cell line, or with respect to IGROV1, according to the method described in Cancer Res. 59: 4559-4563, 1999. Cells suspended in media were added to solutions containing the test substances at various concentrations followed by culturing in a 5% CO2 incubator at 37° C. The numbers of cells were counted 4 days later with the Cell Counting Kit-8. IC50 values were calculated by assigning measured values in the case of not containing a test substance to an inhibition of 0%, and assigning measured values in the case of not containing a test substance or cells to an inhibition of 100%.

The subject of assay [4] is prostate cancer cell line DU 145. Put plainly: Cell proliferation inhibitory activity, DU 145. In kind it is cell-based, human. As to conditions: Homo sapiens, 96 h, cells counted 4 days later with Cell Counting Kit-8. Summed up: as §2
Assay [5] has as its system breast cancer cell line MDA-MB-231. The assay is described as follows: Cell proliferation inhibitory activity, MDA-MB-231. The format is cell-based. The note with it: Homo sapiens, 96 h, cells counted 4 days later with Cell Counting Kit-8. Summed up:
as §2

The target in another assay is CDK2/Cyclin E complex (Homo sapiens, UniProt P24941). The assay is described as follows: In vitro kinase assay, CDK2/Cyclin E complex. In kind it is biochemical. The note with it: recombinant protein (Upstate); read-out: CDK2/cyclinE IC50. The procedure:
as §1

Another assay concerns the target T2, recombinant human βARK1 (Homo sapiens, UniProt P25098).
T2 construct: made in house; host or cells: Sf-9 insect cells (baculovirus, pBacPAK8)
T2 sequence (P25098 1-689): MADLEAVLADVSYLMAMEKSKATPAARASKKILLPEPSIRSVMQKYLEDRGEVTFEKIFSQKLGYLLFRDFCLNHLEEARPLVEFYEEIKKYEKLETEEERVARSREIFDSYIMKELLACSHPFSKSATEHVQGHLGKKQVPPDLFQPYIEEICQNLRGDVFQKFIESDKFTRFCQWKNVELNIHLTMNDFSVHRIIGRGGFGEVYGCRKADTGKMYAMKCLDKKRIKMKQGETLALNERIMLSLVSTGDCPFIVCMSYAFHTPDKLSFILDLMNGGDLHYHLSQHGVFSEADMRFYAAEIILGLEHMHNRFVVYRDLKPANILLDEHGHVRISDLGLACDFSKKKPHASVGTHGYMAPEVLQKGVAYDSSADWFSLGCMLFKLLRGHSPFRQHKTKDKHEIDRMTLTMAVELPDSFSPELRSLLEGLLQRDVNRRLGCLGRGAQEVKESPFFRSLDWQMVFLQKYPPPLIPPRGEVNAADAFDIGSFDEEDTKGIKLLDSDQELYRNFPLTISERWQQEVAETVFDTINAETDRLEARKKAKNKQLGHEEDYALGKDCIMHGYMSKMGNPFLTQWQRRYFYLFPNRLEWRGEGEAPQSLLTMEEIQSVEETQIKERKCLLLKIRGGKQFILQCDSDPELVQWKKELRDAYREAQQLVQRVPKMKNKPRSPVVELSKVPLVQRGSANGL
Put plainly: Inhibitory activity against βARK1 (33P phosphorylation of synthetic peptide). The note with it: recombinant human βARK1, 60 minutes at room temperature. In kind it is biochemical. As to the method:
Human βARK1 was amplified by PCR based on the base sequence of human βARK1 mRNA registered in GenBank (Accession No. M80776) using a human leukocyte cDNA library (Gibco BRL Cat. No. 10421-022) as a template. The amplified cDNA fragment was inserted into a pBacPAK8 vector (Clontech) to construct a plasmid.
Recombinant human βARK1 was expressed using the BacPAK Baculovirus Expression System (Clontech, Cat. No. K1601-1). 1×10^6 Sf-9 cells were adhered to a 35 mm dish in 2.5 mL of TMN-FH Insect Medium containing 10 vol % FBS (Pharminogen, Cat. No. PM-21227M) and cultured overnight at 27° C. On the following day, the medium was removed and 500 ng of the above plasmid, BacPAK6 viral DNA cleaved with Bsu36I (5 μL) and 1.5 mL of the same medium mixed with 4 μL of Bacfectin were added followed by culturing for 5 hours, further adding 1.5 mL of medium and subsequently culturing for 5 days. […] The culture supernatant after 5 days was recovered and a plaque assay was carried out to isolate single plaques. These were then infected into Sf-9 cells and the resulting culture supernatant was designated as Passage 1 (1−3×10^11 pfu/mL). Passage 1 was added to 3×10^7 Sf-9 cells to a multiplicity of infection (MOI) of 0.1 (pfu/cell), suspension culturing was carried out for 5 days using a spinner flask, and the resulting culture supernatant was designated as Passage 2 (4×10^10 pfu/mL) and used as a viral liquid for large-volume expression.
Sf-9 cells at 3×10^9 cells/200 mL were infected by adding Passage 2 to an MOI of 100 followed by addition of medium to bring to a liquid volume of 2 L and further culturing for 3 days. After recovering the cells by centrifugation and washing three times with PBS, the cells were suspended in 100 mL of Lysis Buffer (20 mmol/L HEPES-HCl (pH 7.2), 5 mmol/L EDTA, 3 mmol/L phenylmethylsulfonyl fluoride (PMSF)). After lysing the cells by ultrasonic treatment at low temperature, the supernatant was recovered by centrifuging (45,000×g, 15 minutes) (sup1). NaCl was added to the resulting supernatant to a final concentration of 250 mmol/L followed by ultracentrifugation (300,000×g, 60 minutes) and using the subsequent supernatant as a crude cell extract (sup2).
Purification was carried out with reference to the literature (Benovic, J. L., Methods Enzymol. 1991; 200: 351-362; Kim, C. M. et al., Receptor 1993; 3: 39-55; Sohlemann, P. et al., FEBS Letters 1993; 324: 59-62). The crude cell extract was accurately brought to a volume of 400 mL with Buffer C (20 mmol/L HEPES-HCl (pH 7.2), 5 mmol/L EDTA, 0.02 vol % Triton X-100) followed by loading onto a 50 mL SP-Sepharose FF (Amersham Pharmacia Biotech) column equilibrated with Buffer C. […] ETA was carried out on each fraction using anti-GRK2 antibody (Santa-Cruz Cat. No. SC-562) and the positive fractions were collected (GRK2=βARK1). This was then diluted three-fold with Buffer C and loaded on a 5 mL HiTrap Heparin column (Amersham Pharmacia Biotech) column equilibrated with Buffer C. After washing the column with Wash Buffer (100 mmol/L NaCl, Buffer C), the column was eluted with an NaCl concentration gradient (100 to 600 mmol/L NaCl for 100 minutes, flow rate: 1 mL/min). The positive fractions as determined by ETA were collected and stored in a freezer at −80° C.
A synthetic peptide having an amino acid sequence of biotinated-[…] was used in accordance with a previous report (Chen, C. Y. et al., J. Biol. Chem. 1993; 268: 7825-7831). This synthetic peptide can also be synthesized with reference to known synthesis methods (for example, Chen, C. Y. et al., J. Biol. Chem. 1993; 268: 7825-7831, Biochemistry 1991; 30: 5118-5125). 2 μl of a DMSO solution in which the test compound was diluted to as to be […] the final concentration was dispensed into a 96-well plate (round bottom) (Falcon 351190) (final concentration: 4 vol % DMSO). […]

Assay [6] concerns colon carcinoma cell line SW620. Put plainly: Cell proliferation inhibitory activity, SW620. The format is cell-based, human. As to conditions: Homo sapiens, SW-620, 96 h, cells counted 4 days later with Cell Counting Kit-8. Summed up:
as §2

T1 sequence (Q00526 whole entry): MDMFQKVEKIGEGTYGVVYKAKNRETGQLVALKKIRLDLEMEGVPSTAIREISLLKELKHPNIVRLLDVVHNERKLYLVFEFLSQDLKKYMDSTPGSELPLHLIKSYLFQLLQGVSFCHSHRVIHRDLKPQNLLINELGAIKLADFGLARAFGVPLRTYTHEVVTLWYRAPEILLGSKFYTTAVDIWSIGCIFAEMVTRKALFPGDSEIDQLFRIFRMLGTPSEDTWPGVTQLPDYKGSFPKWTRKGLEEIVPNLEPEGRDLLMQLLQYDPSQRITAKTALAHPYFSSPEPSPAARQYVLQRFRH
T1 sequence (P24864 whole entry partner): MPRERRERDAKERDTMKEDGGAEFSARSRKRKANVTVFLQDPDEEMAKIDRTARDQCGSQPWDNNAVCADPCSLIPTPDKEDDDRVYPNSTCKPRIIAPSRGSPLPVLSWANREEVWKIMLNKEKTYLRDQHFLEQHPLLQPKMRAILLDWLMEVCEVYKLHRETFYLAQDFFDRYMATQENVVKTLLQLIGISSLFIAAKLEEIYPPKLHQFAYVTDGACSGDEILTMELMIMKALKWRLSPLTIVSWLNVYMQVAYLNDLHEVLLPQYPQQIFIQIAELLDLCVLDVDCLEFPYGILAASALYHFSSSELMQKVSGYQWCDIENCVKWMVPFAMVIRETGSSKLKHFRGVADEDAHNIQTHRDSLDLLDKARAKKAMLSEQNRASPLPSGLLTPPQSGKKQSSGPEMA

Consider `CCC(=O)Nc1cc(NC(C)(C)C(=O)Nc2nc3c(C(F)(F)F)cc4[nH]ncc4c3s2)ccc1F` [compound 76], for which the IC50 on CDK3/Cyclin E complex was found to be 124 nM; in the assay with leukemia cell line KG-1a, 300 nM; in [1], 1500 nM; in [2], 2700 nM; in assay [3], 4900 nM; in assay [4] it was 1800 nM. Moreover, the IC50 in assay [5] came to 4600 nM; on CDK2/Cyclin E complex, 294 nM; on recombinant human βARK1, 9.3 nM; in [6], 900 nM.

With `CC(Nc1ccc(Cl)cc1)C(=O)Nc1nc2ccc3[nH]ncc3c2s1` (stereo not shown) [compound 24], the IC50 at CDK3/Cyclin E complex was 75 nM; with leukemia cell line KG-1a it was less than 100 nM; in [2] it was 4600 nM; in assay [3], 4800 nM; in assay [4] it was 3200 nM; in assay [5], 3800 nM. For the same compound, the IC50 was determined as 50 nM at CDK2/Cyclin E complex, 8 nM at recombinant human βARK1 and 900 nM in assay [6].
